Data taken from patent US20240408169A1 (priority 2023, published 2024).
pIC50: −log10 of the molar value. Where two headings read alike, the source gives them in different places. *1 amine or outer side, *2 acyl side, *3 side chain or, on linkers, in order; H or OH if unused. Where a SMILES comes first, the peptide text is derived from it. Bridges are numbered along the chain shown (N, C = ends). [ ]: non-standard residue; d: D form. The star is where a group is joined. X122 = CN([C@@H](Cc1cc(Cl)ccc1C1=CCN(C(=O)C(C)(C)C)CC1)C(=O)[*:2])[*:1]; X127 = CN([C@@H](Cc1cc(F)ccc1-c1cnn(S(=O)(=O)C2CC2)c1)C(=O)[*:2])[*:1]; X123 = CN([C@@H](Cc1cc(Cl)ccc1-c1ccc[nH]c1=O)C(=O)[*:2])[*:1]; X193 = CN([C@@H](Cc1cc(Cl)ccc1-c1cnc2nonc2c1)C(=O)[*:2])[*:1]; NMehhhLys(Me) = CN([C@@H](CCCCCCCN(C)[*:3])C(=O)[*:2])[*:1]; NMe3Pal(2-OiPr,5-Cl) = CN[C@@H](Cc1cc(Cl)cnc1OC(C)C)C(=O)O; X22 = CN([C@@H](Cc1cc(Cl)ccc1-c1cnn(C)c1)C(=O)[*:2])[*:1]; X44 = Cc1nnc(-c2ccc(Cl)cc2C[C@@H](C(=O)[*:2])N(C)[*:1])o1; NMe(hhhLys) = CN([C@@H](CCCCCCCN[*:3])C(=O)[*:2])[*:1]; Oxane2carbonyl(2R-CF3) = O=C([C@@]1(C(F)(F)F)CCCCO1)*; Cyclobutanecarbonyl(1-CF3) = O=C(C1(C(F)(F)F)CCC1)*; cBuCO(3,3-F2-1-CF3) = O=C(C1(C(F)(F)F)CC(F)(F)C1)*; Pro(trans-4-F) = O=C(O)[C@@H]1C[C@@H](F)CN1; Gly(cPr) = N[C@H](C(=O)O)C1CC1

What was measured:
[1] = target: T1, CyclinB1/CDK1 (Homo sapiens, UniProt P14635); assay: Fluorescence Polarization (FP) competitive binding assay, Cyclin B1/Cdk1;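 note: fluorescence polarization read after equilibration at room temperature, with IC50 taken from serially diluted dose-response curves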
T1 construct: purchased Eurofins, discovery 14-450

[2] = tested on: OVCAR3 cells; assay: MTT proliferation assay, OVCAR3; format: cell-based; settings: 5 days compound exposure, 1:3 serial dilution starting at 10 μM;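 note: compound given as an 8- or 10-point series, one day after plating, with exposure covering roughly 3-4 cell doublings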
[3] = target: T2, CyclinA2/CDK2 (Homo sapiens, UniProt P20248); assay: Fluorescence Polarization (FP) competitive binding assay, Cyclin A2/Cdk2;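 note: plates equilibrated two hours at room temperature before polarization reading, IC50 fitted from eight-concentration compound titration curves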
T2 construct: purchased CRELUX Protein Services

[4] = tested on: NCI-H1048 cells; assay: MTT proliferation assay, NCI-H1048; format: cell-based; settings: 5 days compound exposure, 1:3 serial dilution starting at 10 μM;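 note: Dose-response in 96-well plates over 8 or 10 concentration points, with exposure spanning 3-4 cell doublings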
[5] = target: T3, CyclinE1/CDK2 (Homo sapiens, UniProt P24864); assay: Fluorescence Polarization (FP) competitive binding assay, Cyclin E1/Cdk2;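 note: readings taken after two-hour equilibration at room temperature in HEPES buffer with NaCl, DTT, NP-40 and BSA, IC50 fitted from eight-concentration serial dilution series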
T3 construct: purchased Eurofins, discovery 14-475

[6] = 10 nM Cyclin B1/Cdk1, 2 nM FAM probe; average of 2-3 independent experiments; read-out: Cyclin B FP IC50
[7] = 8 nM Cyclin A2/Cdk2, 2 nM FAM probe, average of 2-3 independent experiments, read-out: Cyclin A FP IC50
[8] = 10 nM Cyclin E1/Cdk2, 2 nM FAM probe, average of 2-3 independent experiments, read-out: Cyclin E FP IC50

Row | Structure (SMILES) | pIC50 [1, 6] | GI50 [2] [nM] | pIC50 [3, 7] | GI50 [4] [nM] | pIC50 [5, 8] | pIC50 ([1]; read-out: Cyclin B FP IC50; 10 nM Cyclin B1/Cdk1, 2 nM FAM probe; average of 2-3 independent experiments) | pIC50 [3] | pIC50 [5]
1 | Cc1nnc(-c2ccc(Cl)cc2C[C@H]2C(=O)N(C)CCCCCCC[C@H](N(C)C(=O)[C@@H](NC(=O)[C@@H]3C[C@@H](F)CN3C(=O)C3(C(F)(F)F)CC(F)(F)C3)C3CC3)C(=O)N[C@@H](CC(C)C)C(=O)N2C)o1 [Example 162] ({cBuCO(3,3-F2-1-CF3)}-[Pro(trans-4-F)][Gly(cPr)][NMehhhLys(Me)]L[X44]; lactam 3-C) | 7.70 | 10 | 7.70 | 10 | 6.66 | – | – | –
2 | CC(C)C[C@@H]1NC(=O)[C@@H](N(C)C(=O)[C@@H](NC(=O)[C@@H]2C[C@@H](F)CN2C(=O)C2(C(F)(F)F)CC(F)(F)C2)C2CC2)CCCCCCCN(C)C(=O)[C@H](Cc2cc(Cl)ccc2-c2cnc3nonc3c2)N(C)C1=O [Example 171] ({cBuCO(3,3-F2-1-CF3)}-[Pro(trans-4-F)][Gly(cPr)][NMehhhLys(Me)]L[X193]; lactam 3-C) | 7.70 | 210 | 7.10 | 150 | 5.38 | – | – | –
3 | CC(C)C[C@@H]1NC(=O)[C@@H](N(C)C(=O)[C@@H](NC(=O)[C@@H]2C[C@@H](F)CN2C(=O)C2(C(F)(F)F)CC(F)(F)C2)C2CC2)CCCCCCCNC(=O)[C@H](Cc2cc(Cl)cnc2OC(C)C)N(C)C1=O [Example 131] ({cBuCO(3,3-F2-1-CF3)}-[Pro(trans-4-F)][Gly(cPr)][NMe(hhhLys)]L[NMe3Pal(2-OiPr,5-Cl)]; lactam 3-C) | 7.70 | 400 | 7.52 | 290 | 6.62 | – | – | –
4 | Cc1nnc(-c2ccc(Cl)cc2C[C@H]2C(=O)NCCCCC=CC[C@H](N(C)C(=O)[C@@H](NC(=O)[C@@H]3C[C@@H](F)CN3C(=O)C3(C(F)(F)F)CC(F)(F)C3)C3CC3)C(=O)N[C@@H](CC(C)C)C(=O)N2C)o1 (single isomer, unassigned) [Example 118-P2] | 7.70 | 50 | 7.22 | 50 | 6.52 | – | – | –
5 | CC(C)C[C@@H]1NC(=O)[C@@H](N(C)C(=O)[C@@H](NC(=O)[C@@H]2C[C@@H](F)CN2C(=O)C2(C(F)(F)F)CC(F)(F)C2)C2CC2)CCCCCCCN(C)C(=O)[C@H](Cc2cc(Cl)ccc2C2=CCN(C(=O)C(C)(C)C)CC2)N(C)C1=O [Example 144] ({cBuCO(3,3-F2-1-CF3)}-[Pro(trans-4-F)][Gly(cPr)][NMehhhLys(Me)]L[X122]; lactam 3-C) | 7.70 | 70 | 7.70 | 70 | 6.08 | – | – | –
6 | CC(C)C[C@@H]1NC(=O)[C@@H](N(C)C(=O)[C@@H](NC(=O)[C@@H]2C[C@@H](F)CN2C(=O)C2(C(F)(F)F)CC(F)(F)C2)C2CC2)CCCCCCCN(C)C(=O)[C@H](Cc2cc(Cl)ccc2-c2ccc[nH]c2=O)N(C)C1=O [Example 208] ({cBuCO(3,3-F2-1-CF3)}-[Pro(trans-4-F)][Gly(cPr)][NMehhhLys(Me)]L[X123]; lactam 3-C) | – | 1960 | – | 830 | – | 7.70 | 6.68 | 5.19
7 | CC(C)C[C@@H]1NC(=O)[C@@H](N(C)C(=O)[C@@H](NC(=O)[C@@H]2CCCN2C(=O)C2(C(F)(F)F)CCC2)C2CC2)CCCCCCCN(C)C(=O)[C@H](Cc2cc(Cl)ccc2-c2cnn(C)c2)N(C)C1=O [Example 76] ({Cyclobutanecarbonyl(1-CF3)}-P[Gly(cPr)][NMehhhLys(Me)]L[X22]; lactam 3-C) | 7.70 | 120 | 7.70 | 80 | 6.06 | – | – | –
8 | CC(C)C[C@@H]1NC(=O)[C@@H](N(C)C(=O)[C@@H](NC(=O)[C@@H]2C[C@@H](F)CN2C(=O)C2(C(F)(F)F)CC(F)(F)C2)C2CC2)CCCCCCCNC(=O)[C@H](Cc2cc(F)ccc2-c2cnn(S(=O)(=O)C3CC3)c2)N(C)C1=O [Example 281] ({cBuCO(3,3-F2-1-CF3)}-[Pro(trans-4-F)][Gly(cPr)][NMe(hhhLys)]L[X127]; lactam 3-C) | 7.70 | 20 | 7.40 | 10 | 6.28 | – | – | –
9 | CC(C)C[C@@H]1NC(=O)[C@@H](N(C)C(=O)[C@@H](NC(=O)[C@@H]2C[C@@H](F)CN2C(=O)[C@@]2(C(F)(F)F)CCCCO2)C2CC2)CCCCCCCN(C)C(=O)[C@H](Cc2cc(F)ccc2-c2cnn(S(=O)(=O)C3CC3)c2)N(C)C1=O [Example 282] ({Oxane2carbonyl(2R-CF3)}-[Pro(trans-4-F)][Gly(cPr)][NMehhhLys(Me)]L[X127]; lactam 3-C) | 7.70 | 10 | 7.52 | 10 | 7.00 | – | – | –
